Patent publication US20070179162A1, “Triazolopyrimdines” (priority 2003, published 2007)

Columns and labels:
[1] = logP determination through HPLC (gradient method, acetonitrile/0.1% aqueous phosphoric acid); format: physicochemical
Alternaria solani = test: Alternaria test (tomato)/protective; format: in vivo; details: tomato plants, protective, applied quantity 750 g/ha, analysis 7 days after inoculation; 100% = no infection
Description: Alternaria Test (Tomato)/Protective Solvent: 49 parts by weight N,N-dimethyl formamide Emulsifier: 1 part by weight alkyl aryl polyglycolether To produce an effective active ingredient preparation, 1 part by weight active ingredient is mixed with the specified quantities of solvent and emulsifier and the concentrate is diluted using water to the desired concentration. To test for protective activity, young tomato plants are sprayed with the active ingredient preparation in the specified applied quantity. 1 day after the treatment, the plants are inoculated with a spore suspension of Alternaria solani and then stand 24 hours at 100% relative humidity and 20° C. The plants are then stand at 96% relative humidity and a temperature of 20° C. The analysis is performed 7 days after the inoculation. In this case, 0% means an activity which corresponds to that of the control, while an activity of 100% means that no infection is observed.

CC1CCC(c2c(-c3ncncc3Cl)c(Cl)nc3ncnn23)CC1 (centres unmarked) [Example 1, 5-chloro-6-(5-chloro-4-pyrimidinyl)-7-(4-methylcyclohexyl)[1,2,4]triazolo[1,5-a]pyrimidine]
chromatographic logP [1]: 3.27
activity (Alternaria solani): 100%
